{
  "source": "patent US20160354320A1",
  "about": "“DRUG LOADED POLYMERIC NANOPARTICLES AND METHODS OF MAKING AND USING SAME” (BIND Therapeutics, Inc., priority 2011, published 2016)",
  "experiment": "Water solubility of cabazitaxel",
  "assay_type": "physicochemical",
  "from_the_text": "Drug solubilizer (Tween 80) may be added after the fine emulsion has been quenched. Tween 80 is able to effectively solubilize CTXL crystals and allow for the isolation of nanoparticles from unencapsulated CTXL by preventing the formation of CTXL crystals, and/or by effectively solubilizing any CTXL crystals that form when the fine emulsion is quenched. A standard set of nanoemulsion conditions are as follows: […]",
  "data": [
    {"substance": "cabazitaxel [CTXL]", "values": [
      {"measurement": "water solubility", "value": "very low water solubility"}
    ]}
  ]
}
